Assays:
cloned human M2 receptor = biological target: T1, cloned human M2 receptor (Homo sapiens, UniProt P08172); assay: hM2 receptor GTPγS binding; assay type: biochemical; conditions: CHO membranes expressing hM2, [35S]GTPγS binding
T1 construct: purchased Perkin-Elmer RBHM2M; host or cells: CHO cell membranes
T1 sequence (P08172 1-466): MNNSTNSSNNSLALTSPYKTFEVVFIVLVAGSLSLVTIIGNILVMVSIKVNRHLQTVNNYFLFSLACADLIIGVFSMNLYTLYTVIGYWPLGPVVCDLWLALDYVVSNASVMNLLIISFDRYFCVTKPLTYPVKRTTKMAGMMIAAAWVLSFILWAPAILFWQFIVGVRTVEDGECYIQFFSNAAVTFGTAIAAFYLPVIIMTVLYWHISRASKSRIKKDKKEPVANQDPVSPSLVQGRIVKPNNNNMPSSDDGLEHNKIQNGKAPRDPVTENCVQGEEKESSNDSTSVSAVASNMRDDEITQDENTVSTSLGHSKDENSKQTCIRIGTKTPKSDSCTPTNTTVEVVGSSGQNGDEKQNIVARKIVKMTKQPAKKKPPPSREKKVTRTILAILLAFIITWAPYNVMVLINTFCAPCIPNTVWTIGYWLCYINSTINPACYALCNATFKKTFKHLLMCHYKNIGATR
Protocol: Membranes produced from Chinese hamster ovary cells (CHO) expressing the cloned human M2 receptor (human Muscarinic receptor subtype 2, gene bank access NM_000739), are obtained from Perkin-Elmer (RBHM2M). The membranes are thawed at 37° C., passed 3 times through a 23-gauge blunt-end needle, diluted in the GTPγS binding buffer (50 mM Hepes, 20 mM NaOH, 100 mM NaCl, 1 mM EDTA, 5 mM MgCl2, pH 7.4, 100 μM DTT). The EC50, IC50 and Emax of the compounds of the invention are evaluated from 10-point dose-response curves (three fold concentration range) done in 60 μl in 384-well non-specific binding surface plate (Corning). Ten microliters from the dose-response curves plate (5× concentration) are transferred to another 384 well plate containing 25 μl of the following: 5 μg of hM2 membranes, 500 μg of Flashblue beads (Perkin-Elmer) and GDP 25 μM. An additional 15 μl containing 3.3× (60,000 dpm) of GTPγ^35S (0.4 nM final) are added to the wells resulting in a total well volume of 50 μl. Basal and maximal stimulated [^35S]GTPγS binding are determined in absence and presence of 30 μM final of acetylcholine agonist. The membranes/beads mix are pre-incubated for 15 minutes at room temperature with 25 μM GDP prior to distribution in plates (12.5 μM final). The reversal of acetylcholine-induced stimulation (2 μM final) of [^35S]GTPγS binding is used to assay the antagonist properties (IC50) of the compounds. The plates are incubated for 60 minutes at room temperature then centrifuged at 400 rpm for 5 minutes. The radioactivity (cpm) is counted in a Trilux (Perkin-Elmer).
Values of EC50, IC50 and Emax are obtained using sigmoidal fits of a non-linear curve-fitting program (XLfit version 4.2.2 Excel add-in version 4.2.2 build 18 math 1Q version 2.1.2 build 18) of percent stimulated [^35S]GTPγS binding vs. log(molar ligand). All pEC50 and pIC50 values are reported as arithmetic means±standard error of mean of ‘n’ independent experiments.

[1] = biological target: T2, hM5 (human Muscarinic receptor subtype 5) (Homo sapiens, UniProt P08912); assay: Human M5 calcium mobilization FLIPR assay; assay type: cell-based; conditions: CHO cells expressing hM5, intracellular Ca2+ release
T2 construct: expressed in transfected cells; host or cells: CHO cells (Chinese hamster ovary cells, ATCC)
T2 sequence (P08912 1-532): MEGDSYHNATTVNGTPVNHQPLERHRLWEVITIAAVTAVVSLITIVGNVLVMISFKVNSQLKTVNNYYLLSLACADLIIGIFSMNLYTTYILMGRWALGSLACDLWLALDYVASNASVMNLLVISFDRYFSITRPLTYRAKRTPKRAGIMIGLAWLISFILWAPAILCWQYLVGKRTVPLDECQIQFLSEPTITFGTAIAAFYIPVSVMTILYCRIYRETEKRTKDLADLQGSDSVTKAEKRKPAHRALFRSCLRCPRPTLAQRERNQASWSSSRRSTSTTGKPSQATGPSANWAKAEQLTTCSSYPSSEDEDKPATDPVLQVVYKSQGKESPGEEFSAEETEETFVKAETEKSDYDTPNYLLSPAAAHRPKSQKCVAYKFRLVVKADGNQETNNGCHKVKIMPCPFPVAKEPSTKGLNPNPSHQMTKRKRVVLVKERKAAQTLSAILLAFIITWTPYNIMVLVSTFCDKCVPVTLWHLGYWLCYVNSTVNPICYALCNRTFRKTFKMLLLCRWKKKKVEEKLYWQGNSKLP
Protocol: The compound activity in the present invention (EC50 or IC50) is measured using a 384 plate-based imaging assay that monitors drug induced intracellular Ca^2+ release in whole cells. Activation of hM1 (human Muscarinic receptor subtype 1, gene bank access NM_000738), rM1 (rat Muscarinic receptor subtype 1, gene bank access NM_080773), hM3 (human Muscarinic receptor subtype 3, gene bank access NM_000740NM_000740) and hM5 (human Muscarinic receptor subtype 5, gene bank access NM_0121258), receptors expressed in CHO cells (Chinese hamster ovary cells, ATCC) is quantified in a Molecular Devices FLIPR II™ instrument as an increase in fluorescent signal. Inhibition of hM3 and hM5 by compounds is determined by the decrease in fluorescent signal in response to 2 nM acetylcholine activation.
Prior to experiment, the cell culture medium is removed from the plates by inversion. […] Plates are incubated at 37° C. for 60 minutes prior to start the experiment. The incubation is terminated by washing the cells four times in assay buffer, leaving a residual 25 μl buffer per well. Cell plates are then transferred to the FLIPR, ready for compound additions.
The day of experiment, acetylcholine and compounds are diluted in assay buffer in three-fold concentration range (10 points serial dilution) for addition by FLIPR instrument. For all calcium assays, a baseline reading is taken for 10 seconds followed by the addition of 12.5 μl of compounds, resulting in a total well volume of 37.5 μl. Data is collected every second for 60 pictures and then every 6 seconds for 20 pictures prior to the addition of agonist. For hM3 and hM5, before agonist addition, a second baseline reading is taken for 10 seconds followed by the addition of 12.5 μl of agonist or buffer, producing a final volume of 50 μl. After agonist stimulation, the FLIPR continues to collect data every second for 60 pictures and then every 6 seconds for 20 pictures. The fluorescence emission is read using filter 1 (emission 510-570 nm) by the FLIPR on board CCD camera.
Calcium mobilization output data are calculated as the maximal relative fluorescence unit (RFU) minus the minimal value for both compound and agonist reading frame (except for hM1 and rM1 using only the maximal RFU). Data are analyzed using sigmoidal fits of a non-linear curve-fitting program (XLfit version 4.2.2 Excel add-in version 4.2.2 build 18 math 1Q version 2.1.2 build 18). All pEC50 and pIC50 values are reported as arithmetic means±standard error of mean of ‘n’ independent experiments.

SMILES | EC50 (cloned human M2 receptor) | EC50 [1]
CCOC(=O)N1CCC(C)(N2CCC(N3C(=O)N[C@H]4CCCC[C@@H]43)CC2)C1 (mixture of isomers) [Example 07, Ethyl 3-[4-[(3aS,7aS)-2-oxo-3a,4,5,6,7,7a-hexahydro-3H-benzoimidazol-1-yl]-1-piperidyl]-3-methyl-pyrrolidine-1-carboxylate] | 2.3 µM | 1.1 µM
C#CCOC(=O)N1CCC(C)(N2CCC(N3C(=O)N[C@H]4CCCC[C@@H]43)CC2)C1 (mixture of isomers) [Example 09, Prop-2-ynyl 3-[4-[(3aS,7aS)-2-oxo-3a,4,5,6,7,7a-hexahydro-3H-benzoimidazol-1-yl]-1-piperidyl]-3-methyl-pyrrolidine-1-carboxylate] | > 1 µM | 0.313 µM
CCOC(=O)N1CCC(C)(N2CCC(N3C(=O)N[C@@H]4CCCC[C@@H]43)CC2)CC1 (relative stereo) [Example 12, Ethyl 4-[4-[(cis)-2-oxo-3a,4,5,6,7,7a-hexahydro-3H-benzoimidazol-1-yl]-1-piperidyl]-4-methyl-piperidine-1-carboxylate] | 0.13 µM | 0.919 µM
CC(C)OC(=O)N1CCC(C)(N2CCC(N3C(=O)N[C@@H]4CCCC[C@@H]43)CC2)CC1 (relative stereo) [Example 13, Propan-2-yl 4-[4-[(cis)-2-oxo-3a,4,5,6,7,7a-hexahydro-3H-benzoimidazol-1-yl]-1-piperidyl]-4-methyl-piperidine-1-carboxylate] | > 30 µM | > 40 µM
CCOC(=O)N1CCC(C)(N2CCC(N3C(=O)N[C@H]4CCCC[C@@H]43)CC2)C1 (single isomer, unassigned) [Example 21] | 4.87 µM | > 8.41 µM
CCOC(=O)N1CCC(C)(N2CCC(N3C(=O)N[C@H]4CCCC[C@@H]43)CC2)C1 (single isomer, unassigned) [Example 22] | 1.17 µM | 0.412 µM
CCOC(=O)N1CCC(C)(N2CCC(N3C(=O)C[C@@H]4CCCC[C@H]43)CC2)C1 (stereo in doubt) [Example 23, Ethyl 3-[4-[(3aS,7aR)-2-oxo-3a,4,5,6,7,7a-hexahydro-3H-indol-1-yl]-1-piperidyl]-3-methyl-pyrrolidine-1-carboxylate] | 2.68 µM | > 120 µM
CCOC(=O)N1CCC(C)(N2CCC(N3C(=O)N[C@H]4CCCC[C@@H]43)CC2)CC1 [Example 01, Ethyl 4-[4-[(3aS,7aS)-2-oxo-3a,4,5,6,7,7a-hexahydro-3H-benzoimidazol-1-yl]-1-piperidyl]-4-methyl-piperidine-1-carboxylate] | 0.045 µM | 0.0499 µM
CC(C)OC(=O)N1CCC(C)(N2CCC(N3C(=O)N[C@H]4CCCC[C@@H]43)CC2)CC1 [Example 02, Propan-2-yl 4-[4-[(3aS,7aS)-2-oxo-3a,4,5,6,7,7a-hexahydro-3H-benzoimidazol-1-yl]-1-piperidyl]-4-methyl-piperidine-1-carboxylate] | > 0.2 µM | > 40 µM
CC1(N2CCC(N3C(=O)N[C@H]4CCCC[C@@H]43)CC2)CCN(C(=O)C2CC2)CC1 [Example 03, (3aS,7aS)-1-[1-[1-(cyclopropanecarbonyl)-4-methyl-4-piperidyl]-4-piperidyl]-3a,4,5,6,7,7a-hexahydro-3H-benzoimidazol-2-one] | > 1.6 µM | > 40 µM
CCOC(=O)N1CCC(C)(N2CCC(N3C(=O)N[C@@H]4CCCC[C@H]43)CC2)CC1 [Example 04, Ethyl 4-[4-[(3aR,7aR)-2-oxo-3a,4,5,6,7,7a-hexahydro-3H-benzoimidazol-1-yl]-1-piperidyl]-4-methyl-piperidine-1-carboxylate] | 0.48 µM | 0.586 µM
CC(C)OC(=O)N1CCC(C)(N2CCC(N3C(=O)N[C@@H]4CCCC[C@H]43)CC2)CC1 [Example 05, Propan-2-yl 4-[4-[(3aR,7aR)-2-oxo-3a,4,5,6,7,7a-hexahydro-3H-benzoimidazol-1-yl]-1-piperidyl]-4-methyl-piperidine-1-carboxylate] | > 14 µM | > 49.2 µM
CC1(N2CCC(N3C(=O)N[C@@H]4CCCC[C@H]43)CC2)CCN(C(=O)C2CC2)CC1 [Example 06, (3aR,7aR)-1-[1-[1-(cyclopropanecarbonyl)-4-methyl-4-piperidyl]-4-piperidyl]-3a,4,5,6,7,7a-hexahydro-3H-benzoimidazol-2-one] | > 30 µM | > 49.2 µM
CC(C)OC(=O)N1CCC(C)(N2CCC(N3C(=O)C[C@H]4CCCC[C@@H]43)CC2)CC1 [Example 14, Propan-2-yl 4-[4-[(3aR,7aS)-2-oxo-3a,4,5,6,7,7a-hexahydro-3H-indol-1-yl]-1-piperidyl]-4-methyl-piperidine-1-carboxylate] | > 30 µM | > 40 µM
CC1(N2CCC(N3C(=O)C[C@H]4CCCC[C@@H]43)CC2)CCN(C(=O)C2CC2)CC1 [Example 15, (3aR,7aS)-1-[1-[1-(cyclopropanecarbonyl)-4-methyl-4-piperidyl]-4-piperidyl]-3a,4,5,6,7,7a-hexahydro-3H-indol-2-one] | > 15 µM | > 40 µM
CC#CCOC(=O)N1CCC(C)(N2CCC(N3C(=O)N[C@H]4CCCC[C@@H]43)CC2)CC1 [Example 16, But-2-ynyl 4-[4-[(3aS,7aS)-2-oxo-3a,4,5,6,7,7a-hexahydro-3H-benzimidazol-1-yl]-1-piperidyl]-4-methyl-piperidine-1-carboxylate] | 0.121 µM | > 40 µM

— patent publication US8119661B2, “Piperidine derivatives and their use as muscarinic receptor modulators” (AstraZeneca AB, priority 2007, dated 2012)
